# Assay results reported in ChEMBL document CHEMBL1201862, “PubChem BioAssay data set” (2004).
#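 Interpolation was linear, between the two tested concentrations surrounding the appropriate level; five concentrations were tested over 48 hours in 96-well plates. GI50 marks 50% less growth.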 Active and inactive are the calls of the source. Cut-off read from the data, not from the text of the source: active = GI50 up to about 1.1 µM and inactive = higher.
# Assays:
# Test in all cases: NCI anticancer screen, dose series, 48 h
# SNB-75 = system: SNB-75
# SF-539 = system: SF-539
# IGROV-1 = system: IGROV-1
# T47D = system: T47D
# HOP-62 = system: HOP-62
# HCT-15 = system: HCT-15
# TK-10 = system: TK-10
# NCI-H460 = system: NCI-H460
# MDA-MB-435 = system: MDA-MB-435
# DU-145 = system: DU-145
# NCI/ADR-RES = system: NCI/ADR-RES
# MCF7 = system: MCF7
# HCC 2998 = system: HCC 2998
# SK-MEL-2 = system: SK-MEL-2
# HT-29 = system: HT-29
# SK-MEL-28 = system: SK-MEL-28
# SNB-19 = system: SNB-19
# SW-620 = system: SW-620
# SF-268 = system: SF-268
# SR = system: SR
# PC-3 = system: PC-3
# COLO 205 = system: COLO 205
# SK-OV-3 = system: SK-OV-3
# OVCAR-3 = system: OVCAR-3
# NCI-H23 = system: NCI-H23
# NCI-H522 = system: NCI-H522
# U-251 = system: U-251
# K562 = system: K562
# OVCAR-4 = system: OVCAR-4
# LOX IMVI = system: LOX IMVI
# A549 = system: A549
# HCT-116 = system: HCT-116
# HOP-92 = system: HOP-92
# OVCAR-5 = system: OVCAR-5
# A498 = system: A498
# UACC-257 = system: UACC-257
# SK-MEL-5 = system: SK-MEL-5
# M14 = system: M14
# Hs-578T = system: Hs-578T
# UACC-62 = system: UACC-62
# CAKI-1 = system: CAKI-1
# SN12C = system: SN12C
# ACHN = system: ACHN
# OVCAR-8 = system: OVCAR-8
# NCI-H226 = system: NCI-H226
# EKVX = system: EKVX
# 786-0 = system: 786-0
# HL-60 = system: HL-60
# KM12 = system: KM12
# Malme-3M = system: Malme-3M
# MDA-N = system: MDA-N
# SF-295 = system: SF-295
# MDA-MB-231 = system: MDA-MB-231
# MOLT-4 = system: MOLT-4
# RPMI-8226 = system: RPMI-8226
# UO-31 = system: UO-31
smiles,measurement,setting,value
CC1(C)OP(=O)(O)C=C1Sc1ccc([N+](=O)[O-])cc1[N+](=O)[O-],GI50,SNB-75,> 100 µM (inactive)
same,GI50,SF-539,> 100 µM (inactive)
same,GI50,IGROV-1,> 100 µM (inactive)
same,GI50,T47D,> 100 µM (inactive)
same,GI50,HOP-62,> 100 µM (inactive)
same,GI50,HCT-15,> 100 µM
same,GI50,TK-10,> 100 µM (inactive)
same,GI50,NCI-H460,> 100 µM (inactive)
same,GI50,MDA-MB-435,> 100 µM (inactive)
same,GI50,DU-145,> 100 µM (inactive)
same,GI50,NCI/ADR-RES,> 100 µM (inactive)
same,GI50,MCF7,> 100 µM (inactive)
same,GI50,HCC 2998,> 100 µM (inactive)
same,GI50,SK-MEL-2,> 100 µM (inactive)
same,GI50,HT-29,45.7 µM (inactive)
same,GI50,SK-MEL-28,> 100 µM (inactive)
same,GI50,SNB-19,> 100 µM (inactive)
same,GI50,SW-620,> 100 µM (inactive)
same,GI50,SF-268,> 100 µM (inactive)
same,GI50,SR,> 100 µM (inactive)
same,GI50,PC-3,> 100 µM (inactive)
same,GI50,COLO 205,> 100 µM (inactive)
same,GI50,SK-OV-3,> 100 µM (inactive)
same,GI50,OVCAR-3,> 100 µM (inactive)
same,GI50,NCI-H23,> 100 µM (inactive)
same,GI50,NCI-H522,> 100 µM (inactive)
same,GI50,U-251,> 100 µM (inactive)
same,GI50,K562,> 100 µM (inactive)
same,GI50,OVCAR-4,> 100 µM (inactive)
same,GI50,LOX IMVI,> 100 µM (inactive)
same,GI50,A549,> 100 µM (inactive)
same,GI50,HCT-116,> 100 µM (inactive)
same,GI50,HOP-92,> 100 µM (inactive)
same,GI50,OVCAR-5,> 100 µM (inactive)
same,GI50,A498,> 100 µM (inactive)
same,GI50,UACC-257,> 100 µM (inactive)
same,GI50,SK-MEL-5,> 100 µM (inactive)
same,GI50,M14,> 100 µM (inactive)
same,GI50,Hs-578T,> 100 µM (inactive)
same,GI50,UACC-62,> 100 µM (inactive)
same,GI50,CAKI-1,> 100 µM (inactive)
same,GI50,SN12C,> 100 µM (inactive)
same,GI50,ACHN,> 100 µM (inactive)
same,GI50,OVCAR-8,> 100 µM (inactive)
same,GI50,NCI-H226,> 100 µM (inactive)
same,GI50,EKVX,> 100 µM (inactive)
same,GI50,786-0,> 100 µM (inactive)
same,GI50,HL-60,> 100 µM (inactive)
same,GI50,KM12,> 100 µM (inactive)
same,GI50,Malme-3M,> 100 µM (inactive)
same,GI50,MDA-N,> 100 µM (inactive)
same,GI50,SF-295,> 100 µM (inactive)
COc1cc(C2C3C=CC=C4CC=CC(=C43)C3CCC(=O)N32)cc(OC)c1OC (centres undefined),GI50,SNB-75,> 100 µM (inactive)
same,GI50,SF-539,> 100 µM (inactive)
same,GI50,IGROV-1,68.4 µM (inactive)
same,GI50,T47D,36.1 µM (inactive)
same,GI50,HOP-62,> 100 µM (inactive)
same,GI50,HCT-15,> 100 µM
same,GI50,TK-10,> 100 µM (inactive)
same,GI50,NCI-H460,> 100 µM (inactive)
same,GI50,MDA-MB-435,> 100 µM (inactive)
same,GI50,DU-145,> 100 µM (inactive)
same,GI50,NCI/ADR-RES,13.8 µM (inactive)
same,GI50,MCF7,> 100 µM (inactive)
same,GI50,SK-MEL-2,> 100 µM (inactive)
same,GI50,HT-29,61.5 µM (inactive)
same,GI50,SK-MEL-28,> 100 µM (inactive)
same,GI50,SNB-19,> 100 µM (inactive)
same,GI50,SW-620,> 100 µM (inactive)
same,GI50,SF-268,> 100 µM (inactive)
same,GI50,SR,> 100 µM (inactive)
same,GI50,MDA-MB-231,> 100 µM (inactive)
same,GI50,PC-3,59 µM (inactive)
same,GI50,SK-OV-3,64 µM (inactive)
same,GI50,OVCAR-3,> 100 µM (inactive)
same,GI50,MOLT-4,> 100 µM (inactive)
same,GI50,NCI-H522,> 100 µM (inactive)
same,GI50,U-251,> 100 µM (inactive)
same,GI50,K562,> 100 µM (inactive)
same,GI50,LOX IMVI,> 100 µM (inactive)
same,GI50,A549,99.1 µM (inactive)
same,GI50,HCT-116,94.8 µM (inactive)
same,GI50,HOP-92,85.9 µM (inactive)
same,GI50,OVCAR-5,> 100 µM (inactive)
same,GI50,A498,> 100 µM (inactive)
same,GI50,UACC-257,> 100 µM (inactive)
same,GI50,M14,> 100 µM (inactive)
same,GI50,UACC-62,30.8 µM (inactive)
same,GI50,RPMI-8226,> 100 µM (inactive)
same,GI50,SN12C,> 100 µM (inactive)
same,GI50,ACHN,> 100 µM (inactive)
same,GI50,OVCAR-8,> 100 µM (inactive)
same,GI50,NCI-H226,0.224 µM (active)
same,GI50,EKVX,> 100 µM (inactive)
same,GI50,786-0,> 100 µM (inactive)
same,GI50,HL-60,64.1 µM (inactive)
same,GI50,UO-31,48.9 µM (inactive)
same,GI50,KM12,> 100 µM (inactive)
same,GI50,SF-295,> 100 µM (inactive)
